Measured values as given in patent US20220372040A1, “METTL3 MODULATORS” (Accent Therapeutics, Inc., priority 2020, published 2022).

Key:
METTL3/METTL14 = METTL3/METTL14 (Homo sapiens, UniProt Q86U44); assay: METTL3-14 standard enzyme assay (3H-SAM flashplate scintillation); assay type: biochemical; settings: METTL3/METTL14 2.5 nM, RNA 100 nM, 3H-SAM 100 nM, 30 min
Experimental: METTL3-14 Standard Enzyme Assay
Assays were performed in a 25 μl-volume in 384-well V-bottom polypropylene microplates (Greiner Bio-One, cat. No. 781280) at ambient temperature. Optimized 1× assay buffer was 20 mM HEPES pH 7.5, 50 mM KCl, 250 μM MgCl2, 1 mM DTT, 0.01% Tween, 0.01% BSG, 0.004 U/μl RNAseOUT (cat. No. 10777019, ThermoFisher Scientific, Waltham, Mass.). For compound screening METTL3/METTL14 (final concentration, f.c.=2.5 nM) was added using a Multidrop Combi (ThermoFisher Scientific, Waltham, Mass.) and preincubated for 5 min. Reactions were started by adding 3′ biotinylated RNA (UCUGGACUAAA-biotin) (f.c.=100 nM) and 3H-SAM (f.c.=100 nM) substrates. Reactions proceeded for 30 minutes and were quenched with excess non-radioactive SAM (f.c.=15 μM). The reactions were then transferred to streptavidin-coated flashplates and incubated for 2 hours at 25° C. Following two washing cycles with 0.1% Tween-20, the plates were sealed and read on a TopCount (PerkinElmer, Waltham, Mass.) plate-based scintillation counter. For determination of kinetic parameters, reaction times were optimized so that measurements were taken during the initial velocity phase of the reaction.

PRMT5-MEP50 = PRMT5-MEP50 (Homo sapiens, UniProt O14744); assay: PRMT5 assay (3H-SAM flashplate scintillation); assay type: biochemical; settings: PRMT5-MEP50 2.5 nM, histone H4 peptide 100 nM, 3H-SAM 250 nM, 60 min
PRMT5-MEP50, sequence (O14744 whole entry): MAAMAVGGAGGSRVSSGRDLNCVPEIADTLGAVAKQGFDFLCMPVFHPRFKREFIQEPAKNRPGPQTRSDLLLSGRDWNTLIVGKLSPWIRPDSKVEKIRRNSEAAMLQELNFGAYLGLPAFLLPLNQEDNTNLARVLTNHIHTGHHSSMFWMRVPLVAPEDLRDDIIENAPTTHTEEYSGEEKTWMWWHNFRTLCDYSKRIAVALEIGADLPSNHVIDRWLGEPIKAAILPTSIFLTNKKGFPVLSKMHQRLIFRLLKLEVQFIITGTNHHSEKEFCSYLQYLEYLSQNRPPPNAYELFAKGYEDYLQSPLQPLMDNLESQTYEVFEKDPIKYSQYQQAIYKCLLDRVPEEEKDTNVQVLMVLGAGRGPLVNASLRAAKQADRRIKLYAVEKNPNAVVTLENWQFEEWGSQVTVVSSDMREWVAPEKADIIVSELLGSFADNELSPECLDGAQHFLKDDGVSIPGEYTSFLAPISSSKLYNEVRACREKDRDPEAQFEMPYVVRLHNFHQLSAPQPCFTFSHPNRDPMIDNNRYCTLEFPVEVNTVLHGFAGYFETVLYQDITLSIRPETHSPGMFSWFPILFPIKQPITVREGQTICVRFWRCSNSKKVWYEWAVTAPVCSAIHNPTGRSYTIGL
PRMT5-MEP50, sequence (Q9BQA1 whole entry partner): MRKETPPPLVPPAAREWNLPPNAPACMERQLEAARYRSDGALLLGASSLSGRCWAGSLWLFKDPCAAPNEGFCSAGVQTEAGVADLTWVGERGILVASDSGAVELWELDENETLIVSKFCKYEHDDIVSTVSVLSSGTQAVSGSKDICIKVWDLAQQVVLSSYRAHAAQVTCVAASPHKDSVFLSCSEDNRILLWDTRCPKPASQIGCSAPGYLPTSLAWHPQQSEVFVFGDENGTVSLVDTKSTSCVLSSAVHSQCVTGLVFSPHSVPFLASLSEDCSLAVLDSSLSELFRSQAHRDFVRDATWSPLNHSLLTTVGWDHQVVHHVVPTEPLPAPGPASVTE
Experimental: Assays were performed in a 25 μl-volume in 384-well V-bottom polypropylene microplates (Greiner Bio-One, cat. No. 781280) at ambient temperature. Optimized 1× assay buffer was 20 mM Tris-HCl pH 8.0, 1 mM DTT, […]. For compound screening PRMT5-MEP50 (final concentration, f.c.=2.5 nM) was added using a Multidrop Combi (ThermoFisher Scientific, Waltham, Mass.) and preincubated for 5 min. Reactions were started by adding 3′ biotinylated histone H4 peptide acetylated on serine 1 (Ac-[…]-Biotin) (f.c.=100 nM) and 3H-SAM (f.c.=250 nM) substrates. Reactions proceeded for 60 minutes and were quenched with excess non-radioactive SAM (f.c.=15 μM). The reactions were then transferred to streptavidin-coated flashplates and incubated for 2 hours at 25° C. Following two washing cycles with 0.1% Tween-20, the plates were sealed and read on a TopCount (PerkinElmer, Waltham, Mass.) plate-based scintillation counter. For determination of kinetic parameters, reaction times were optimized so that measurements were taken during the initial velocity phase of the reaction.

METTL3/METTL14, sequence (Q86U44 whole entry, species assumed): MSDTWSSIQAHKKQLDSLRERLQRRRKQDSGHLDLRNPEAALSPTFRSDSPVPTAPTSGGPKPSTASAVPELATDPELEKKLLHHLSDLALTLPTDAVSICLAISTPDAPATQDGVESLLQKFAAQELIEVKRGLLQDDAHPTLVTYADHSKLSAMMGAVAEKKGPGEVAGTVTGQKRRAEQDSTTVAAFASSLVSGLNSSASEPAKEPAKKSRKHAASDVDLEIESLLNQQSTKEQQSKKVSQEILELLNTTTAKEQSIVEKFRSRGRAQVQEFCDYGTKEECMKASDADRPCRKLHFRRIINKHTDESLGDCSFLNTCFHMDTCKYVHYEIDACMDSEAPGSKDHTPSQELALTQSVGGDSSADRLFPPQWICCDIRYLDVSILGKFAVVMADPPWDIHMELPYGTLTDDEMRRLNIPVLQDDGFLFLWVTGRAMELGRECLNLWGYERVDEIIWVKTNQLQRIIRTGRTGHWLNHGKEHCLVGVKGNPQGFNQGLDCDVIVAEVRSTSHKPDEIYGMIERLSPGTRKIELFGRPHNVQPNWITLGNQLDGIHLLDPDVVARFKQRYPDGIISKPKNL
METTL3/METTL14, sequence (Q9HCE5 whole entry partner, species assumed): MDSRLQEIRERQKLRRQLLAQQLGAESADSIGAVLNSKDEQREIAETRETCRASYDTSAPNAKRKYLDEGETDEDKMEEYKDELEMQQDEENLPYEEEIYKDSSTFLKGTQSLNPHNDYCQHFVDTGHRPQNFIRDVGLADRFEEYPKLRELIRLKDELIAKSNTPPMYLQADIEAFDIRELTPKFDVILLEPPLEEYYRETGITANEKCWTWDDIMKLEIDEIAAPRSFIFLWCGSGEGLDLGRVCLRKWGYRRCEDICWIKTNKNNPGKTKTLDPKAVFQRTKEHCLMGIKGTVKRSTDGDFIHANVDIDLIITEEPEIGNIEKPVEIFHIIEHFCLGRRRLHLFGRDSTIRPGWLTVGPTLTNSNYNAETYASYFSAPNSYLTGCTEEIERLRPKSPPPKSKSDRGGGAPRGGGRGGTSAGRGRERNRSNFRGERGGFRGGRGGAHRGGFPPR

| IC50 (METTL3/METTL14) [nM] | IC50 (PRMT5-MEP50) [nM] | SMILES |
| --- | --- | --- |
| < 10 | > 1000 | Cn1ccc(-c2cn(-c3cncc(CSc4ccc5ccc(N6CCC6)nc5c4)c3)c3ncnc(N)c23)n1 [Compound I-219, 7-[5-({[2-(azetidin-1-yl)quinolin-7-yl]sulfanyl}methyl)pyridin-3-yl]-5-(1-methyl-1H-pyrazol-3-yl)-7H-pyrrolo[2,3-d]pyrimidin-4-amine] |
| > 1000 | > 1000 | Cn1ccc(-c2cn(-c3cncc(COC(=O)Nc4cccc(Br)n4)c3)c3ncnc(N)c23)n1 [Compound I-223] |
| < 10 | > 1000 | Nc1ncnc2c(-c3cncc(COc4ccc5ccc(N6CCC6)nc5c4)c3)c[nH]c12 [Compound I-190] |
| > 1000 | > 1000 | Cn1ccc(-c2cn(-c3cncc(COc4ccc(C(=O)N5CCC(F)(F)CC5)c(N)c4)c3)c3ncnc(N)c23)n1 [Compound I-186] |
| 100 to 1000 | > 1000 | Cn1ccc(-c2cn(-c3cncc(COc4ccc5ccc(N6CC7(COC7)C6)nc5c4)c3)c3ncnc(N)c23)n1 [Compound I-201] |
| > 1000 | > 1000 | Cn1ccc(-c2cn(-c3cncc(COC(=O)Nc4cccc(N5CCC5)n4)c3)c3ncnc(N)c23)n1 [Compound I-224, {5-[4-amino-5-(1-methyl-1H-pyrazol-3-yl)-7H-pyrrolo[2,3-d]pyrimidin-7-yl]pyridin-3-yl}methyl N-[6-(azetidin-1-yl)pyridin-2-yl]carbamate] |
| 100 to 1000 | > 1000 | C[S+]([O-])c1cn(-c2cncc(COc3ccc4ccc(N5CCC5)nc4c3)c2)c2ncnc(N)c12 (centres unmarked) [Compound I-173] |
| > 1000 | > 1000 | Cn1ccc(-c2cn(-c3cncc(COc4ccc(-c5ncco5)c(N)c4)c3)c3ncnc(N)c23)n1 [Compound I-211] |
| 10 to 100 | > 1000 | CC(=O)NC1CN(c2ccc3ccc(OCc4cncc(-n5cc(-c6ccn(C)n6)c6c(N)ncnc65)c4)cc3n2)C1 [Compound I-202] |
| 10 to 100 | > 1000 | Cc1cc(NCCN(C)CCCCc2ccccc2)c2ccc(OCc3cncc(-n4ccc5c(N)ncnc54)c3)cc2n1 [Compound I-102] |
| > 1000 | > 1000 | Cn1ccc(-c2cn(-c3cncc(COc4ccc(C(=O)N5CCOCC5)c(N)c4)c3)c3ncnc(N)c23)n1 [Compound I-178] |
| 10 to 100 | > 1000 | CCc1ccc2ccc(OCc3cncc(-n4cc(-c5ccn(C)n5)c5c(N)ncnc54)c3)cc2n1 [Compound I-180] |
| > 1000 | > 1000 | Cn1ccc(-c2cn(-c3cncc(CS(=O)(=O)c4ccc5ccc(N6CCC6)nc5c4)c3)c3ncnc(N)c23)n1 [Compound I-220, 7-[5-({[2-(azetidin-1-yl)quinolin-7-yl]sulfonyl}methyl)pyridin-3-yl]-5-(1-methyl-1H-pyrazol-3-yl)-7H-pyrrolo[2,3-d]pyrimidin-4-amine] |
| > 1000 | > 1000 | CN(C)CCNC(=O)c1ccc(OCc2cncc(-n3ccc4c(N)ncnc43)c2)cc1N [Compound I-216] |
| > 1000 | > 1000 | CCc1cc(N2CCC2)nc2cc(OCc3cncc(-n4cc(C5CCCO5)c5c(N)ncnc54)c3)cc(F)c12 (centres unmarked) [Compound I-199] |
| 100 to 1000 | > 1000 | Cn1ccc(-c2cn(-c3cncc(COc4ccc5ccc(C6CCOCC6)nc5c4)c3)c3ncnc(N)c23)n1 [Compound I-189] |
| 100 to 1000 | > 1000 | Nc1ncnc2c1ccn2-c1csc(COc2ccc3ccc(N4CCCC4)nc3c2)n1 [Compound I-54] |
| > 1000 | > 1000 | Cn1ccc(-c2cn(-c3cncc(COc4ccc5cnc(N6CCC6)nc5c4)c3)c3ncnc(N)c23)n1 [Compound I-183] |
| > 1000 | > 1000 | Cn1ccc(-c2cn(-c3cncc(CNC(=O)Nc4cccc(N5CCC5)n4)c3)c3ncnc(N)c23)n1 [Compound I-225, 1-({5-[4-amino-5-(1-methyl-1H-pyrazol-3-yl)-7H-pyrrolo[2,3-d]pyrimidin-7-yl]pyridin-3-yl}methyl)-3-[6-(azetidin-1-yl)pyridin-2-yl]urea] |

| IC50 (METTL3/METTL14) [nM] | IC50 (PRMT5-MEP50) [nM] | SMILES |
| --- | --- | --- |
| 100 to 1000 | > 1000 | Cn1ccc(-c2cn(-c3cncc(COc4ccc5ccc(N6CC7(CCC7)C6)nc5c4)c3)c3ncnc(N)c23)n1 [Compound I-194] |
| > 1000 | > 1000 | CN(CC1CC1)C(=O)c1ccc(OCc2cncc(-n3cc(-c4ccn(C)n4)c4c(N)ncnc43)c2)cc1N [Compound I-179] |
| > 1000 | > 1000 | CN(CCO)C(=O)c1ccc(OCc2cncc(-n3cc(-c4ccn(C)n4)c4c(N)ncnc43)c2)cc1N [Compound I-209] |
| > 1000 | > 1000 | CC1COc2ccc(OCc3cncc(-n4cc(-c5ccn(C)n5)c5c(N)ncnc54)c3)cc2N1 (centres unmarked) [Compound I-171] |
| 100 to 1000 | > 1000 | Cn1ccc(-c2cn(-c3cncc(COc4ccc(C(=O)NC5CCOCC5)c(N)c4)c3)c3ncnc(N)c23)n1 [Compound I-187] |
| > 1000 | 100 to 1000 | Cn1ccc(-c2cn(-c3cncc(C[S+]([O-])c4ccc5ccc(N6CCC6)nc5c4)c3)c3ncnc(N)c23)n1 (centres unmarked) [Compound I-221, 7-[5-({[2-(azetidin-1-yl)quinolin-7-yl]sulfinyl}methyl)pyridin-3-yl]-5-(1-methyl-1H-pyrazol-3-yl)-7H-pyrrolo[2,3-d]pyrimidin-4-amine] |
| > 1000 | > 1000 | Cn1ccc(-c2cn(-c3cncc(COc4ccc5ccc(N6CCC6=O)nc5c4)c3)c3ncnc(N)c23)n1 [Compound I-188] |
| 10 to 100 | > 1000 | Cn1ccc(-c2cn(-c3cncc(COc4cc(F)c5ccc(N6CCC6)nc5c4)c3)c3ncnc(N)c23)n1 [Compound I-208] |
| > 1000 | > 1000 | Cn1ccc(-c2cn(-c3cncc(COc4ccc5ccc(N6CCCC6=O)nc5c4)c3)c3ncnc(N)c23)n1 [Compound I-195] |
| > 1000 | > 1000 | CCc1cc(N2CCC2)nc2cc(F)cc(OCc3cncc(-n4cc(C5CCCO5)c5c(N)ncnc54)c3)c12 (centres unmarked) [Compound I-198] |
| > 1000 | > 1000 | CN(C)CCNC(=O)c1ccc(OCc2cncc(-n3cc(Br)c4c(N)ncnc43)c2)cc1N [Compound I-218] |
| 100 to 1000 | > 1000 | Cn1ccc(-c2cn(-c3cncc(COc4ccc(CN5CCC(CO)CC5)c(N)c4)c3)c3ncnc(N)c23)n1 [Compound I-200] |
| 100 to 1000 | > 1000 | Cn1ccc(-c2cn(-c3cncc(COc4ccc5ccc(N6CCC(F)(F)CC6)nc5c4)c3)c3ncnc(N)c23)n1 [Compound I-197] |
| 100 to 1000 | > 1000 | CCc1cc(=O)c2ccc(OCc3cncc(-n4cc(C5CCCC5)c5c(N)ncnc54)c3)cc2[nH]1 [Compound I-105] |
| 100 to 1000 | > 1000 | Cn1ccc(-c2cn(-c3cncc(COc4ccc(C(=O)N5CCNCC5)c(N)c4)c3)c3ncnc(N)c23)n1 [Compound I-176] |
| > 1000 | > 1000 | Cn1ccc(-c2cn(-c3cncc(COc4cc(F)ccc4C(=O)NC4CCOCC4)c3)c3ncnc(N)c23)n1 [Compound I-181] |
| > 1000 | > 1000 | Cn1ccc(-c2cn(-c3cncc(COc4ccc5ccc(N6CCOCC6=O)nc5c4)c3)c3ncnc(N)c23)n1 [Compound I-214] |
| 10 to 100 | > 1000 | Cc1cc(NCCN(C)CCCCCc2ccccc2)c2ccc(OCc3cncc(-n4ccc5c(N)ncnc54)c3)cc2n1 [Compound I-103] |
